{"source": "patent US20150374660A1", "about": "“Ascorbate Esters of Omega-3 Fatty Acids and Their Formulations and Uses” (JIVA PHARMA, INC., priority 2013, published 2015)", "key": {"[1]": {"test_system": "cultured primary human myocytes", "test": "fatty acid oxidation rates in cultured primary human myocytes (radiolabeled CO2 release)", "type": "cell-based", "conditions": "48 hr, n=6; for differences from control in fatty acid oxidation: ethanol control, 30, 100 and 300 micromolar; for promotion of fatty acid oxidation (complete oxidation, CO2): normal primary human myocytes, 30, 100 and 300 micromolar, radiolabeled oleic acid, compared to EPAEE", "text": "FIG. 1 is a graph of the data obtained from biology tests described herein of EPA and DHA ascorbates on fatty acid oxidation rates in cultured on normal primary human myocytes. The vertical axis is the complete oxidation (nmol CO2/mg protein). The statistical variance is shown by the “T” at the top of each bar. The #1 bar (solid coral) is the ethanol as control; #2 bars (solid gray, from left to right are 30, 100 and 300 micromolar) of EPA; #3 bars (solid green, from left to right are 30, 100 and 300 micromolar) of EPAX; #4 bars (hash red and white, from left to right are 30, 100 and 300 micromolar) of DHAX; and #5 bars (solid red, from left to right are 30, 100 and 300 micromolar) of EPAEE.\nEffect of EPA and DHA ascorbates on fatty acid oxidation rates in cultured primary human myocytes were determined and discussed below.\nCell-based multiwell assays for the detection of substrate accumulation and oxidation are described in literature (A. J. Wensaas, et al., J. of Lipid Research 48, 961-967 (2007)) for detecting the accumulation as well as the subsequent oxidation of ^14C labeled substrates in cultured cells. Accumulation is monitored in real time by an established scintillation proximity assay in which the scintillator is embedded in the plate base primarily detecting cell-associated radiolabel. This method was applied, and the effect of EPA and DHA ascorbates on fatty acid oxidation rates in cultured primary human myocytes was determined The compounds tested were EPA, EPAX (EPAX), DHAX (DHAX), and EPAEE.\nCultured human primary myocytes from normal (non-diabetic, non-obese) subjects\nCells treated with 30, 100 and 300 micromolar of each compound for 48 hr\nCells grown in the presence of radiolabeled oleic acid\nRadiolabeled CO2 released during the incubation was measured.\nEach compound was tested 6 times (n=6)"}, "[2]": {"conditions": "cited from earlier work"}}}
{"smiles": "CC/C=C\\C/C=C\\C/C=C\\C/C=C\\C/C=C\\CCCC(=O)OC[C@H](O)[C@H]1OC(=O)C(O)=C1O", "note": "[EPA ascorbate]", "values": [{"measurement": "differences from control in fatty acid oxidation", "setting": "[1]", "result": "not statistically significant"}, {"measurement": "promotion of fatty acid oxidation (complete oxidation, CO2)", "setting": "[1]", "result": "distinct trend"}]}
{"smiles": "CC/C=C\\C/C=C\\C/C=C\\C/C=C\\C/C=C\\C/C=C\\CCC(=O)OC[C@H](O)[C@H]1OC(=O)C(O)=C1O", "note": "[DHA ascorbate]", "values": [{"measurement": "differences from control in fatty acid oxidation", "setting": "[1]", "result": "not statistically significant"}, {"measurement": "promotion of fatty acid oxidation (complete oxidation, CO2)", "setting": "[1]", "result": "to a lesser degree"}]}
{"smiles": "CCCCCCCCCCCCCCCC(=O)OC[C@H](O)[C@H]1OC(=O)C(O)=C1O", "note": "[Palmitoyl ascorbate, 6-O-palmitoyl L-ascorbate]", "values": [{"measurement": "solubility in aqueous ethanol", "setting": "[2]; aqueous ethanol", "result": "soluble"}, {"measurement": "solubility in water", "setting": "[2]; water", "result": "sparingly soluble"}]}
